Starred links: 1 amine or outer side, 2 acyl side, 3 side chain; linkers in the order of their positions; H or OH if unused. Non-standard residues stand in square brackets, D forms with d. Residues, ends and D or L forms follow the SMILES beside them. *: point of attachment. X2 = C=CCN([C@@H](C)C(=O)[*:2])[*:1]; X1 = O=C(CN(CC(Br)CBr)[*:1])[*:2]; X3 = O=C(CN(CC(Cl)CCl)[*:1])[*:2]; NAllylGly = C=CCNCC(=O)O; Boc = CC(C)(C)OC(=O)*

Drawing on BindingDB's records for doi:10.1016/S0960-894X(01)80278-X (n/a, 1994), this text covers IC50 for 15 molecules.

The assay is described as follows: Antiviral activity against HIV-1 in CEM cells.
`C=CCN(CC(=O)N[C@H](C(=O)N[C@H](C(=O)OC)C(C)C)[C@@H](C)CC)C(=O)OC(C)(C)C`: the IC50 was over 226 µM.

The molecule `C=CCN(CC(=O)N[C@H](C(=O)N[C@H](C(=O)OC)C(C)C)[C@@H](C)CC)C(=O)[C@H](Cc1ccccc1)NC(=O)[C@H](C)N` (H-AF[NAllylGly]IV-OMe) displayed a half-maximal inhibitory concentration (IC50) of over 178 µM.

The molecule `C=CCN(CC(=O)N[C@H](C(=O)N[C@H](C(=O)OC)C(C)C)[C@@H](C)CC)C(=O)[C@H](Cc1ccccc1)NC(=O)[C@H](C)NC(=O)[C@H](C)NC(=O)[C@H](CO)NC(=O)OC(C)(C)C` (Boc-SAAF[NAllylGly]IV-OMe) had an IC50 of over 24.4 µM. `CC[C@H](C)[C@H](NC(=O)CN(CC(Cl)CCl)C(=O)[C@H](Cc1ccccc1)NC(=O)[C@H](C)NC(=O)OC(C)(C)C)C(=O)N[C@H](C(=O)OC)C(C)C` (stereo not given in full) (Boc-AF[X3]IV-OMe) returned an IC50 of over 136 µM. `CC[C@H](C)[C@H](NC(=O)CN(CC(Br)CBr)C(=O)[C@H](Cc1ccccc1)NC(=O)[C@H](C)NC(=O)OC(C)(C)C)C(=O)N[C@H](C(=O)OC)C(C)C` (stereo not given in full) (Boc-AF[X1]IV-OMe): the IC50 was over 610 µM.

`CC[C@H](C)[C@H](NC(=O)CN(CC(Cl)CCl)C(=O)[C@H](Cc1ccccc1)NC(=O)OC(C)(C)C)C(=O)N[C@H](C(=O)OC)C(C)C` (stereo not given in full) had a half-maximal inhibitory concentration (IC50) of over 50.4 µM. Molecule `C=CCN(C(=O)[C@H](Cc1ccccc1)NC(=O)[C@H](C)NC(=O)OC(C)(C)C)[C@@H](C)C(=O)N[C@H](C(=O)N[C@H](C(=O)OC)C(C)C)[C@@H](C)CC` (Boc-AF[X2]IV-OMe) yielded a half-inhibitory concentration (IC50) of over 296 µM. Turning to `C=CCN(C(=O)[C@H](Cc1ccccc1)NC(=O)[C@H](C)NC(=O)[C@H](C)NC(=O)OC(C)(C)C)[C@@H](C)C(=O)N[C@H](C(=O)N[C@H](C(=O)OC)C(C)C)[C@@H](C)CC` (Boc-AAF[X2]IV-OMe), the IC50 amounted to 3.89 µM. The value for `C=CCN(CC(=O)N[C@H](C(=O)N[C@H](C(=O)OC)C(C)C)[C@@H](C)CC)C(=O)[C@H](Cc1ccccc1)NC(=O)[C@H](C)NC(=O)OC(C)(C)C` (Boc-AF[NAllylGly]IV-OMe) was 54.1 µM. Take `C=CCN(CC(=O)N[C@H](C(=O)N[C@H](C(=O)OC)C(C)C)[C@@H](C)CC)C(=O)[C@@H](N)Cc1ccccc1` (H-F[NAllylGly]IV-OMe): the IC50 was over 204 µM.

Molecule `CC[C@H](C)[C@H](NC(=O)CN(CC(Br)CBr)C(=O)[C@H](Cc1ccccc1)NC(=O)OC(C)(C)C)C(=O)N[C@H](C(=O)OC)C(C)C` (stereo not given in full) registered an IC50 of 56.7 µM.

In the case of `C=CCN(CC(=O)N[C@H](C(=O)N[C@H](C(=O)OC)C(C)C)[C@@H](C)CC)C(=O)[C@H](Cc1ccccc1)NC(=O)OC(C)(C)C` (Boc-F[NAllylGly]IV-OMe), the IC50 is over 169 µM. Turning to `C=CCN(C(=O)[C@H](Cc1ccccc1)NC(=O)OC(C)(C)C)[C@@H](C)C(=O)N[C@H](C(=O)N[C@H](C(=O)OC)C(C)C)[C@@H](C)CC`, the IC50 is over 16.5 µM. The value for `C=CCN(C(=O)[C@H](Cc1ccccc1)NC(=O)[C@H](C)NC(=O)[C@H](C)NC(=O)[C@H](CO)NC(=O)OC(C)(C)C)[C@@H](C)C(=O)N[C@H](C(=O)N[C@H](C(=O)OC)C(C)C)[C@@H](C)CC` (Boc-SAAF[X2]IV-OMe) was over 120 µM; that for `C=CCNCC(=O)N[C@H](C(=O)N[C@H](C(=O)OC)C(C)C)[C@@H](C)CC` was over 195 µM.
